Source: ChEMBL document CHEMBL6115028, “An Amazing 30-Year Journey around the DABO Family: A Medicinal Chemistry Lesson on a Versatile Class of Non-nucleoside HIV-1 Reverse Transcriptase Inhibitors” (J Med Chem, 2025)
pEC50, pIC50: −log10 of the molar value. Converted amounts (≈) assume the structure as drawn.

Legend:
[1] = tested on: Human immunodeficiency virus 1; assay: Antiviral activity against HIV-1 WAN infected in human […] cells at 0.03 MOI assessed as reduction in viral replication incubated for 2 hrs by ELISA analysis; format: functional, organism-based; details: Human immunodeficiency virus 1, WAN, C8166, 2 h
[2] = tested on: Human immunodeficiency virus 1; assay: Antiviral activity against HIV-1 NL4-3 harboring reverse transcriptase V106A mutant infected in human C8166 cells assessed as reduction in virus-induced cytopathic effect measured for 2 hrs by ELISA analysis; format: functional, organism-based; details: Human immunodeficiency virus 1, NL4-3, C8166, 2 h
MT4 = assay: Cytotoxicity against human MT4 cells assessed as reduction in cell growth measured after 3 days by MTT assay; format: functional; details: MT4, 72 h, time 3 day
[3] = tested on: Human immunodeficiency virus 1; assay: Antiviral activity against HIV-1 KM018 infected in human […] cells at 0.03 MOI assessed as reduction in viral replication incubated for 2 hrs by ELISA analysis; format: functional, organism-based; details: Human immunodeficiency virus 1, KM018, C8166, 2 h
[4] = tested on: Human immunodeficiency virus 1; assay: Antiviral activity against HIV-1 NL4-3 harboring reverse transcriptase V106M mutant infected in human C8166 cells assessed as reduction in virus-induced cytopathic effect measured for 2 hrs by ELISA analysis; format: functional, organism-based; details: Human immunodeficiency virus 1, NL4-3, C8166, 2 h
[5] = Cytotoxicity against human PBMC cells assessed as reduction in cell growth measured after 3 days by MTT assay; format: functional; details: 72 h, time 3 day
[6] = biological target: Human immunodeficiency virus type 1 reverse transcriptase (Human immunodeficiency virus 1, UniProt Q72547); assay: Inhibition of HIV-1 Reverse transcriptase
[7] = tested on: Human immunodeficiency virus 1; assay: Antiviral activity against HIV-1 A17 infected in human […] cells at 0.03 MOI assessed as reduction in viral replication incubated for 2 hrs by ELISA analysis; format: functional, organism-based; details: Human immunodeficiency virus 1, A17, C8166, 2 h
C8166 = assay: Cytotoxicity against human C8166 cells assessed as reduction in cell growth measured after 3 days by MTT assay; format: functional; details: C8166, 72 h, time 3 day
[8] = tested on: Human immunodeficiency virus 1; assay: Antiviral activity against HIV-1 NL4-3 harboring reverse transcriptase V108I mutant infected in human C8166 cells assessed as reduction in virus-induced cytopathic effect measured for 2 hrs by ELISA analysis; format: functional, organism-based; details: Human immunodeficiency virus 1, NL4-3, C8166, 2 h
[9] = tested on: Human immunodeficiency virus 1; assay: Antiviral activity against HIV-1 NL4-3 harboring reverse transcriptase Y181C mutant infected in human C8166 cells assessed as reduction in virus-induced cytopathic effect measured for 2 hrs by ELISA analysis; format: functional, organism-based; details: Human immunodeficiency virus 1, NL4-3, C8166, 2 h
[10] = tested on: Human immunodeficiency virus 1; assay: Antiviral activity against HIV-1 TC-2 infected in human […] cells at 0.03 MOI assessed as reduction in viral replication incubated for 2 hrs by ELISA analysis; format: functional, organism-based; details: Human immunodeficiency virus 1, TC-2, C8166, 2 h
[11] = tested on: Human immunodeficiency virus 1; assay: Antiviral activity against HIV-1 NL4-3 harboring reverse transcriptase K103N mutant infected in human C8166 cells assessed as reduction in virus-induced cytopathic effect measured for 2 hrs by ELISA analysis; format: functional, organism-based; details: Human immunodeficiency virus 1, NL4-3, C8166, 2 h
[12] = tested on: Human immunodeficiency virus 1; assay: Antiviral activity against wild type HIV-1 NL4-3 harboring reverse transcriptase infected in human C8166 cells assessed as reduction in virus-induced cytopathic effect measured for 2 hrs by ELISA analysis; format: functional, organism-based; details: Human immunodeficiency virus 1, NL4-3, C8166, 2 h
[13] = tested on: Human immunodeficiency virus 1; assay: Antiviral activity against HIV-1 MN infected in human […] cells at 0.03 MOI assessed as reduction in viral replication incubated for 2 hrs by ELISA analysis; format: functional, organism-based; details: Human immunodeficiency virus 1, MN, C8166, 2 h
[14] = Solubility in water; format: physicochemical
[15] = tested on: Human immunodeficiency virus 1; assay: Antiviral activity against HIV-1 IIIB infected in human […] cells at 0.03 MOI assessed as reduction in viral replication incubated for 2 hrs by ELISA analysis; format: functional, organism-based; details: Human immunodeficiency virus 1, IIIB, C8166, 2 h
A-375 [16] = assay: Inhibition of cell proliferation in human A-375 cells assessed as alive cells at 10 uM measured for 96 hrs relative to control; format: functional
A-375 [17] = assay: Inhibition of cell proliferation in human A-375 cells assessed as alive cells at 25 uM measured for 96 hrs relative to control; format: functional
A-375 [18] = assay: Inhibition of cell proliferation in human A-375 cells assessed as alive cells at 2.5 uM measured for 96 hrs relative to control; format: functional
A-375 [19] = assay: Inhibition of cell proliferation in human A-375 cells assessed as alive cells at 5 uM measured for 96 hrs relative to control; format: functional
Micrococcus luteus = assay: Antibacterial activity against Micrococcus luteus ATCC 2188 assessed as reduction in bacterial growth incubated for 24 to 48 hrs by serial dilution method; format: functional; details: time 24-48 hrs
Escherichia coli = assay: Antibacterial activity against Escherichia coli ATCC 25922 assessed as reduction in bacterial growth incubated for 24 to 48 hrs by serial dilution method; format: functional; details: time 24-48 hrs
Pseudomonas aeruginosa = assay: Antibacterial activity against Pseudomonas aeruginosa ATCC 27853 assessed as reduction in bacterial growth incubated for 24 to 48 hrs by serial dilution method; format: functional; details: time 24-48 hrs
Staphylococcus aureus = assay: Antibacterial activity against Staphylococcus aureus ATCC 6538 assessed as reduction in bacterial growth incubated for 24 to 48 hrs by serial dilution method; format: functional; details: time 24-48 hrs
Bacillus subtilis = assay: Antibacterial activity against Bacillus subtilis NRRL B-1481 assessed as reduction in bacterial growth incubated for 24 to 48 hrs by serial dilution method; format: functional; details: time 24-48 hrs
Influenza B virus [20] = assay: Antiviral activity against Influenza B virus infected in dog MDCK cells assessed as reduction in viral replication incubated for 3 days by MTS assay; format: functional, organism-based; details: 72 h
Influenza A virus [21] = assay: Antiviral activity against Influenza A virus A/H1N1 infected in dog MDCK cells reduction in viral replication incubated for 3 days by MTS assay; format: functional, organism-based; details: 72 h
[22] = Cytotoxicity against dog MDCK cells assessed as reduction in cell viability measured for 3 days by MTT assay; format: toxicity, cell-based, Canis lupus familiaris; details: time 3 day
Influenza A virus [23] = assay: Antiviral activity against Influenza A virus A/H2N2 infected in dog MDCK cells reduction in viral replication incubated for 3 days by MTS assay; format: functional, organism-based; details: 72 h
Influenza A virus [24] = assay: Antiviral activity against Influenza A virus A/H2N2 infected in dog MDCK cells reduction in virus induced cytopathic effect measured after 3 days by CPE assay; format: functional, organism-based; details: 72 h
Influenza A virus [25] = assay: Antiviral activity against Influenza A virus A/H1N1 infected in MDCK cells reduction in virus induced cytopathic effect measured after 3 days by CPE assay; format: functional, organism-based; details: 72 h
Influenza B virus [26] = assay: Antiviral activity against Influenza B virus infected in dog MDCK cells assessed as reduction in cytopathic effect measured after 3 days by CPE assay; format: functional, organism-based; details: 72 h
[27] = tested on: Vesicular stomatitis virus; assay: Antiviral activity against Vesicular stomatitis virus infected in Vero cells assessed as inhibition of cytopathic effect measured after 96 hrs by fluorescence based CPE reduction method; format: functional, organism-based
Sindbis virus = assay: Antiviral activity against Sindbis virus infected in Vero cells assessed as reduction in viral growth incubated for 96 hrs by plaque assay; format: functional, organism-based
Rubella virus = assay: Antiviral activity against Rubella virus infected in Vero cells assessed as reduction in viral growth incubated for 96 hrs by plaque assay; format: functional, organism-based
HOP-92 = assay: Growth inhibition of human HOP-92 cells at 10 uM relative to control; format: functional; details: read-out: GI
[28] = tested on: Human immunodeficiency virus 1; assay: Antiviral activity against HIV-1 IIIB infected in […] cells assessed as reduction in viral replication measured for 72 hrs; format: functional, organism-based; details: Human immunodeficiency virus 1, IIIB
[29] = Oral bioavailability in rat; format: ADME, organism-based; details: in vivo
Hepatitis B virus = assay: Antiviral activity against Hepatitis B virus infected in human HepG2.2.15 cells assessed as inhibition of HBV DNA production by qRT-PCR analysis; format: functional, organism-based
HepG2 2.2.15 = assay: Cytotoxicity against human HepG2.2.15 cells assessed as reduction in cell growth by MTT assay; format: functional
[30] = Inhibition of Zika virus NS5 RNA-directed RNA polymerase NS5
Zika virus = assay: Antiviral activity against Zika virus infected in Vero cells assessed as reduction in viral DNA replication; format: functional, organism-based
[31] = Inhibition of Hepatitis C virus NS5B RNA dependent RNA polymerase; set-up: species or system Hepacivirus hominis
[32] = Cytotoxicity against African green monkey Vero cells assessed as reduction in cell viability measured after 96 hrs by MTT assay; format: toxicity, cell-based; details: chlorocebus sabaeus
[33] = Cytotoxicity against African green monkey Vero cells assessed as reduction in cell growth measured after 96 hrs by MTT assay; format: toxicity, cell-based; details: chlorocebus sabaeus
A-375 [34] = assay: Inhibition of cell proliferation in human A-375 cells assessed as alive cells at 50 uM measured for 96 hrs relative to control; format: functional
A-375 [35] = assay: Inhibition of cell proliferation in human A-375 cells assessed as alive cells at 100 uM measured for 96 hrs relative to control; format: functional
Huh-7 = assay: Cytotoxicity against human Huh-7 cells assessed as reduction in cell growth; format: functional
Hepatitis C virus = assay: Antiviral activity against Hepatitis C virus infected in human Huh7.5 cells assessed as reduction in viral replication; format: functional, organism-based, Hepacivirus hominis
MOLT-4 = assay: Growth inhibition of human MOLT-4 cells at 10 uM relative to control; format: functional; details: read-out: GI

CCc1c(CC2CCCCC2)nc(SCC(=O)c2ccccc2)[nH]c1=O
pEC50 [1]: 7.60 | pEC50 [2]: 6.13 | CC50 (MT4): > 100000 nM | pEC50 [3]: 7.39 | pEC50 [4]: 6.76 | CC50 [5]: > 100000 nM | pIC50 [6]: 6.36 | pEC50 [7]: 4.41 | CC50 (C8166): > 100000 nM | pEC50 [8]: 7.92 | pEC50 [9]: 6.62 | pEC50 [10]: 8.10 | pEC50 [11]: 6.15 | pEC50 [12]: 8.15 | pEC50 [13]: 8.30 | solubility [14]: 4 µg/mL | pEC50 [15]: 8.70

CCC(C)Sc1nc(C(CC)c2c(F)cccc2F)c(C)c(=O)[nH]1 (centres undefined)
inhibition at 10 µM (A-375 [16]): 12% | inhibition at 25 µM (A-375 [17]): 5% | inhibition at 2.5 µM (A-375 [18]): 70% | inhibition at 5 µM (A-375 [19]): 30%

COc1cc(-c2nc(SC)[nH]c(=O)c2C#N)ccc1OCc1ccccc1
MIC (Micrococcus luteus): 12.5 µM (≈ 4.74 µg/mL) | MIC (Escherichia coli): 12.5 µg/mL (≈ 32.9 µM) | MIC (Pseudomonas aeruginosa): 12.5 µg/mL (≈ 32.9 µM) | MIC (Staphylococcus aureus): 12.5 µg/mL (≈ 32.9 µM) | MIC (Bacillus subtilis): 6.25 µg/mL (≈ 16.5 µM)

COc1ccc(NC(=O)CSc2nc(Cc3cccc4ccccc34)c(C)c(=O)[nH]2)cc1
pEC50 (Influenza B virus [20]): < 4.66 | pEC50 (Influenza A virus [21]): 5.05 | CC50 at 72 h [22]: > 224000 nM | pEC50 (Influenza A virus [23]): 5.01 | pEC50 (Influenza A virus [24]): 4.59 | pEC50 (Influenza A virus [25]): 5.05 | pEC50 (Influenza B virus [26]): < 4.35

CCN(CC)CCc1cc(=O)[nH]c(SC)n1
IC50 [27]: 29 µg/mL (≈ 120 µM) | IC50 (Sindbis virus): 44.3 µg/mL (≈ 184 µM) | IC50 (Rubella virus): 3.9 µg/mL (≈ 16.2 µM)

N#Cc1c(-c2c(Cl)cccc2Cl)nc(SCC(=O)c2ccc(Br)cc2)[nH]c1=O
inhibition of growth at 10 µM (HOP-92): 41%

CCc1c(CC2CCCCC2)nc(SCC(=O)c2ccc(OP(=O)(OC)OC)cc2)[nH]c1=O
pEC50 [28]: 8.00 | pIC50 [6]: 6.12 | bioavailability [29]: 14.6% | solubility [14]: 6.4 µM

O=c1[nH]c(SC2OC[C@H](O)[C@@H](O)[C@@H]2O)nc(Cc2ccccc2)c1Cc1ccccc1 (some centres undefined)
pEC50 (Hepatitis B virus): 6.70 | CC50 (HepG2 2.2.15): > 100000 nM

CCc1c(C2CCCCC2)nc(SCC(=O)Nc2cc(F)cc(F)c2)[nH]c1=O
pIC50 [30]: 4.94 | pEC50 (Zika virus): 5.12 | pIC50 [31]: 6.99 | CC50 at 96 h [32]: > 10000 nM | CC50 at 96 h [33]: > 200000 nM

CCC(C)Sc1nc(C(C)c2c(F)cccc2F)nc(=O)[nH]1 (centres undefined)
inhibition at 50 µM (A-375 [34]): 62% | inhibition at 100 µM (A-375 [35]): 14%

CCc1c(-c2ccc(C(C)C)cc2)nc(Sc2ccccc2Br)[nH]c1=O
CC50 (Huh-7): > 250000 nM | pEC50 (Hepatitis C virus): 4.49 | pIC50 [31]: 5.42

CCc1ccc(-c2nc(SCC(=O)c3ccc(Br)cc3)[nH]c(=O)c2C#N)s1
inhibition of growth at 10 µM (MOLT-4): 42.4%
